Measurements taken from patent publication US4028399A, “Carbamate” (priority 1969, dated 1977).

Tested on: houseflies
Assay type: in vivo, common houseflies
Conditions: 1 mm^3 acetonic solution to ventral abdomen under CO2 narcosis; kill rate after 4 hours
Description: ADMINISTRATION TEST WITH COMMON HOUSEFLIES
1 mm^3 of the acetonic solution of the active ingredients is administered to the ventral abdomen of houseflies under CO2 narcosis. The kill rate on the insects thus treated is determined after 4 hours, from which the mortality curve is calculated.

Structure (SMILES) | LD50
CCc1cc(CC)cc(OC(=O)NC)c1 [3,5-diethyl-phenyl-N-methylcarbamate] | 0.12 /fly
CNC(=O)Oc1cc(C)cc(C(C)C)c1 [Comparative substance II, 3-isopropyl-5-methyl-N-methylcarbamate] | 0.26 /fly
CNC(=O)Oc1cc(C)c(C)cc1Cl [Comparative substance III, 3,4-dimethyl-6-chloro-N-methylcarbamate] | 10.0 /fly
